Experimental data as given in PubChem BioAssay AID328 (DTP/NCI, 2004).
Where “and” joins values, the source holds several entries; their conditions need not be identical. Equal values may be shown once. Inconclusive results and toxic doses are left out.

Tested on: BDF1 mice, P388 leukemia ip, median survival T/C
Test: NCI In Vivo Anticancer Drug Screen. Data for tumor model P388 Leukemia (intraperitoneal) in B6D2F1 (BDF1) mice
Settings: endpoint: median survival time, higher = longer survival
Procedure, shortened: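 In tumour-bearing mice, survival after compound treatment is set against the vehicle group and given as a quotient.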

[1] = dose: 12.5 mg/kg/injection, schedule: Q01DX009 (ip), vehicle: Klucel (hydroxypropylcellulose) (HPC)
[2] = dose: 25.0 mg/kg/injection, schedule: Q01DX009 (ip), vehicle: Klucel (hydroxypropylcellulose) (HPC)
[3] = dose: 50.0 mg/kg/injection, schedule: Q01DX009 (ip), vehicle: Klucel (hydroxypropylcellulose) (HPC)
[4] = dose: 100.0 mg/kg/injection, schedule: Q04DX003 (ip), vehicle: saline with Tween-80
[5] = dose: 200.0 mg/kg/injection, schedule: Q04DX003 (ip), vehicle: saline with Tween-80
[6] = dose: 400.0 mg/kg/injection, schedule: Q04DX003 (ip), vehicle: saline with Tween-80
[7] = dose: 100.0 mg/kg/injection, schedule: Q01DX009 (ip), vehicle: saline with Tween-80
[8] = dose: 50.0 mg/kg/injection, schedule: Q01DX009 (ip), vehicle: saline with Tween-80
[9] = dose: 200.0 mg/kg/injection, schedule: Q01DX009 (ip), vehicle: saline with Tween-80

Structure (SMILES): CCCCCCCC(=O)N/N=C(\CO)[C@]1(O)Cc2c(O)c3c(c(O)c2[C@@H](OC2CC(N)C(O)C(C)O2)C1)C(=O)c1c(OC)cccc1C3=O (some centres undefined)
- T/C (dose: 0.78 mg/kg/injection, schedule: Q01DX009 (ip), vehicle: water): 114 % of control
- T/C (dose: 1.56 mg/kg/injection, schedule: Q01DX009 (ip), vehicle: water): 183 % of control
- T/C (dose: 3.12 mg/kg/injection, schedule: Q01DX009 (ip), vehicle: water): 106 % of control and 222 % of control
- T/C (dose: 6.25 mg/kg/injection, schedule: Q01DX009 (ip), vehicle: water): 163 % of control and 200 % of control
- T/C (dose: 12.5 mg/kg/injection, schedule: Q01DX009 (ip), vehicle: water): 117 % of control and 204 % of control
- T/C (dose: 25.0 mg/kg/injection, schedule: Q01DX009 (ip), vehicle: water): 104 % of control

Structure (SMILES): C[C@]12CCC(=O)C=C1CC[C@@H]1[C@@H]2C(=O)C[C@]2(C)C3=CC(=O)O[C@H]3C[C@@H]12
- T/C [1]: 109 % of control and 110 % of control
- T/C (dose: 12.5 mg/kg/injection, schedule: Q04DX003 (ip), vehicle: Klucel (hydroxypropylcellulose) (HPC)): 109 % of control
- T/C [2]: 118 % of control and 120 % of control
- T/C (dose: 25.0 mg/kg/injection, schedule: Q04DX003 (ip), vehicle: Klucel (hydroxypropylcellulose) (HPC)): 113 % of control
- T/C [3]: 86 % of control and 115 % of control
- T/C (dose: 50.0 mg/kg/injection, schedule: Q04DX003 (ip), vehicle: Klucel (hydroxypropylcellulose) (HPC)): 122 % of control
- T/C (dose: 100.0 mg/kg/injection, schedule: Q01DX009 (ip), vehicle: Klucel (hydroxypropylcellulose) (HPC)): 90 % of control

Structure (SMILES): CN(Cc1ccc2nc(N)nc(N)c2c1)c1ccc(C(=O)NC(CCC(=O)O)C(=O)O)cc1 (centres undefined)
- T/C (dose: 0.03 mg/kg/injection, schedule: Q01DX009 (ip), vehicle: saline): 172 % of control
- T/C (dose: 0.05 mg/kg/injection, schedule: Q01DX009 (ip), vehicle: saline): 194 % of control
- T/C (dose: 0.09 mg/kg/injection, schedule: Q01DX009 (ip), vehicle: saline): 200 % of control and 218 % of control
- T/C (dose: 0.15 mg/kg/injection, schedule: Q01DX009 (ip), vehicle: saline): 86 % of control and 190 % of control and 209 % of control
- T/C (dose: 0.22 mg/kg/injection, schedule: Q01DX009 (ip), vehicle: saline): 223 % of control
- T/C (dose: 0.31 mg/kg/injection, schedule: Q01DX009 (ip), vehicle: saline): 110 % of control
- T/C (dose: 1.25 mg/kg/injection, schedule: Q04DX003 (ip), vehicle: saline): 218 % of control
- T/C (dose: 1.65 mg/kg/injection, schedule: Q04DX003 (ip), vehicle: saline): 154 % of control
- T/C (dose: 2.5 mg/kg/injection, schedule: Q04DX003 (ip), vehicle: saline): 268 % of control and 159 % of control and 181 % of control
- T/C (dose: 3.75 mg/kg/injection, schedule: Q04DX003 (ip), vehicle: saline): 86 % of control and 222 % of control
- T/C (dose: 5.0 mg/kg/injection, schedule: Q04DX003 (ip), vehicle: saline): 104 % of control
- T/C (dose: 5.7 micrograms/kg/injection, schedule: Q01DX009 (ip), vehicle: saline): 116 % of control
- T/C (dose: 8.5 micrograms/kg/injection, schedule: Q01DX009 (ip), vehicle: saline): 116 % of control
- T/C (dose: 13.0 micrograms/kg/injection, schedule: Q01DX009 (ip), vehicle: saline): 262 % of control
- T/C (dose: 19.0 micrograms/kg/injection, schedule: Q01DX009 (ip), vehicle: saline): 174 % of control

Structure (SMILES): CCOC(=O)Oc1c(OC)cc(C(=O)O[C@@H]2C[C@@H]3CN4CCc5c([nH]c6cc(OC)ccc56)[C@H]4C[C@@H]3[C@H](C(=O)OC)[C@H]2OC)cc1OC
- T/C (dose: 25.0 mg/kg/injection, schedule: Q01DX009 (ip), vehicle: saline with Tween-80): 100 % of control

Structure (SMILES): O=[N+]([O-])c1ccc(N2CCN(c3cccc(C(F)(F)F)c3)CC2)c([N+](=O)[O-])c1
- T/C [4]: 113 % of control
- T/C [5]: 100 % of control
- T/C [6]: 100 % of control

Structure (SMILES): [NH2-].[NH2-].[NH2-].[NH2-].[NH2-].[NH2-].[Ni]
- T/C (dose: 6.25 mg/kg/injection, schedule: Q01DX001 (ip), vehicle: saline): 99 % of control
- T/C (dose: 12.5 mg/kg/injection, schedule: Q01DX001 (ip), vehicle: saline): 103 % of control

Structure (SMILES): CCc1nnc2ncccn12
- T/C (dose: 50.0 mg/kg/injection, schedule: Q01DX009 (ip), vehicle: saline): 97 % of control and 102 % of control and 104 % of control
- T/C (dose: 100.0 mg/kg/injection, schedule: Q01DX009 (ip), vehicle: saline): 104 % of control and 107 % of control
- T/C (dose: 200.0 mg/kg/injection, schedule: Q01DX009 (ip), vehicle: saline): 91 % of control and 100 % of control

Structure (SMILES): CC(=O)Nc1c(Cl)c(Cl)c2c(c1Cl)C(=O)c1cc(Cl)ccc1-2
- T/C [7]: 90 % of control
- T/C [4]: 90 % of control
- T/C [5]: 90 % of control
- T/C [6]: 95 % of control

Structure (SMILES): CC1=CC(=O)c2c(O)ccc(O)c2C1=O
- T/C (dose: 1.25 mg/kg/injection, schedule: Q01DX009 (ip), vehicle: alcohol): 114 % of control
- T/C (dose: 2.5 mg/kg/injection, schedule: Q01DX009 (ip), vehicle: alcohol): 122 % of control

Structure (SMILES): O=C(O)c1c(-c2ccccc2)[nH]c2cc(Cl)ccc2c1=O
- T/C (dose: 6.25 mg/kg/injection, schedule: Q01DX009 (ip), vehicle: Klucel (hydroxypropylcellulose) (HPC)): 95 % of control
- T/C [1]: 90 % of control and 109 % of control
- T/C [2]: 100 % of control
- T/C [3]: 95 % of control
- T/C [8]: 114 % of control
- T/C (dose: 50.0 mg/kg/injection, schedule: Q04DX003 (ip), vehicle: saline with Tween-80): 122 % of control
- T/C (dose: 90.0 mg/kg/injection, schedule: Q04DX003 (ip), vehicle: saline with Tween-80): 109 % of control
- T/C [7]: 118 % of control
- T/C [4]: 113 % of control
- T/C (dose: 133.0 mg/kg/injection, schedule: Q04DX003 (ip), vehicle: saline with Tween-80): 112 % of control and 113 % of control
- T/C [9]: 100 % of control
- T/C [5]: 108 % of control and 109 % of control
- T/C (dose: 300.0 mg/kg/injection, schedule: Q04DX003 (ip), vehicle: saline with Tween-80): 104 % of control

Structure (SMILES): C/C=C1/C[C@@H](C)[C@@](C)(O)C(=O)OCC2=CCN3CC[C@@H](OC1=O)[C@@H]23
- T/C (dose: 7.5 mg/kg/injection, schedule: Q01DX010 (ip), vehicle: steriod suspending solution): 109 % of control
- T/C (dose: 15.0 mg/kg/injection, schedule: Q01DX010 (ip), vehicle: steriod suspending solution): 100 % of control
- T/C (dose: 30.0 mg/kg/injection, schedule: Q01DX010 (ip), vehicle: steriod suspending solution): 100 % of control
- T/C (dose: 60.0 mg/kg/injection, schedule: Q01DX010 (ip), vehicle: steriod suspending solution): 95 % of control and 109 % of control

Structure (SMILES): COc1cc(-c2ccc(Nc3ccccc3C(=O)O)c(OC)c2)ccc1Nc1ccccc1C(=O)O
- T/C (dose: 50.0 mg/kg/injection, schedule: Q01DX010 (ip), vehicle: saline): 166 % of control
- T/C (dose: 100.0 mg/kg/injection, schedule: Q01DX010 (ip), vehicle: saline): 158 % of control

Structure (SMILES): O=C1C(=O)c2ccccc2-c2ccccc21
- T/C (dose: 0.75 mg/kg/injection, schedule: Q01DX009 (ip), vehicle: carboxymethylcellulose (CMC)): 100 % of control
- T/C (dose: 1.5 mg/kg/injection, schedule: Q01DX009 (ip), vehicle: carboxymethylcellulose (CMC)): 109 % of control
- T/C (dose: 3.0 mg/kg/injection, schedule: Q01DX009 (ip), vehicle: carboxymethylcellulose (CMC)): 95 % of control
- T/C (dose: 6.0 mg/kg/injection, schedule: Q01DX009 (ip), vehicle: carboxymethylcellulose (CMC)): 114 % of control

Structure (SMILES): CCCCCCCCCC(O)CCCCCC (centres undefined)
- T/C (dose: 100.0 mg/kg/injection, schedule: Q01DX009 (ip), vehicle: other): 105 % of control
- T/C (dose: 100.0 mg/kg/injection, schedule: Q04DX003 (ip), vehicle: other): 95 % of control
- T/C (dose: 200.0 mg/kg/injection, schedule: Q04DX003 (ip), vehicle: other): 118 % of control

Structure (SMILES): CN1CCN(C)P1c1ccccc1
- T/C [8]: 109 % of control
- T/C [7]: 112 % of control
- T/C [9]: 110 % of control

Structure (SMILES): C=CCNC(=S)N/N=C\c1cc(OC)c(OC)c(OC)c1
- T/C [8]: 95 % of control
- T/C [7]: 100 % of control
- T/C [9]: 90 % of control

Structure (SMILES): CC(=O)[O][Hg][c]1c(N)c(C)cc(C)c1F
- T/C (dose: 0.78 mg/kg/injection, schedule: Q01DX009 (ip), vehicle: saline): 93 % of control
- T/C (dose: 1.56 mg/kg/injection, schedule: Q01DX009 (ip), vehicle: saline): 95 % of control
- T/C (dose: 3.12 mg/kg/injection, schedule: Q01DX009 (ip), vehicle: saline): 93 % of control
- T/C (dose: 6.25 mg/kg/injection, schedule: Q01DX009 (ip), vehicle: saline): 95 % of control
- T/C (dose: 12.5 mg/kg/injection, schedule: Q01DX009 (ip), vehicle: saline): 95 % of control

Structure (SMILES): Cc1cc(-c2ccccc2)c2ccccc2c1N(CC(=O)O)S(=O)(=O)c1ccccc1
- T/C (dose: 44.0 mg/kg/injection, schedule: Q01DX009 (ip), vehicle: saline with Tween-80): 95 % of control and 105 % of control
- T/C (dose: 66.0 mg/kg/injection, schedule: Q01DX009 (ip), vehicle: saline with Tween-80): 110 % of control
- T/C [7]: 95 % of control and 120 % of control
- T/C (dose: 150.0 mg/kg/injection, schedule: Q01DX009 (ip), vehicle: saline with Tween-80): 121 % of control
